# Experimental data from PubChem BioAssay AID2060604 (Molecular Pharmacology Branch, DTP, NCI, 2025).
# System: 379773-124-R-J2-PDC complex spheroids, viability % test/control
# Assay: Anticancer human tumor 379773-124-R-J2-PDC patient-derived endometrial carcinoma cell line growth inhibition [CLK]
# Settings: for IC50: curve of first compound; for viability, T/C: stronger effect = lower value
# Method in brief: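 Patient-derived tumor cells grown as complex spheroids with HUVEC endothelial cells and mesenchymal stem cells, treated with drug combinations. Concentrations descend in half-log steps from near clinical Cmax, or from 10 microM if Cmax unknown.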
# [1] = second compound 0.0316 µM, first compound 0.00949 µM
# [2] = second compound 0.0316 µM, first compound 0.03 µM
# [3] = second compound 0.0316 µM, first compound 0.0949 µM
# [4] = second compound 0.0316 µM, first compound 0.3 µM
# [5] = second compound 0.1 µM, first compound 0.00949 µM
# [6] = second compound 0.1 µM, first compound 0.03 µM
# [7] = second compound 0.1 µM, first compound 0.0949 µM
# [8] = second compound 0.1 µM, first compound 0.3 µM
# [9] = second compound 0.316 µM, first compound 0.00949 µM
# [10] = second compound 0.316 µM, first compound 0.03 µM
# [11] = second compound 0.316 µM, first compound 0.0949 µM
# [12] = second compound 0.316 µM, first compound 0.3 µM
# [13] = second compound 1 µM, first compound 0.00949 µM
# [14] = second compound 1 µM, first compound 0.03 µM
# [15] = second compound 1 µM, first compound 0.0949 µM
# [16] = second compound 1 µM, first compound 0.3 µM
# [17] = second compound 3.16 µM, first compound 0.00949 µM
# [18] = second compound 3.16 µM, first compound 0.03 µM
# [19] = second compound 3.16 µM, first compound 0.0949 µM
# [20] = second compound 3.16 µM, first compound 0.3 µM
# [21] = second compound 10 µM, first compound 0.00949 µM
# [22] = second compound 10 µM, first compound 0.03 µM
# [23] = second compound 10 µM, first compound 0.0949 µM
# [24] = second compound 10 µM, first compound 0.3 µM
# [25] = second compound 0.0316 µM, first compound 0.0316 µM
# [26] = second compound 0.0316 µM, first compound 0.1 µM
# [27] = second compound 0.0316 µM, first compound 0.316 µM
# [28] = second compound 0.0316 µM, first compound 1 µM
# [29] = second compound 0.0316 µM, first compound 3.16 µM
# [30] = second compound 0.0316 µM, first compound 10 µM
# [31] = second compound 0.1 µM, first compound 0.0316 µM
# [32] = second compound 0.1 µM, first compound 0.1 µM
# [33] = second compound 0.1 µM, first compound 0.316 µM
# [34] = second compound 0.1 µM, first compound 1 µM
# [35] = second compound 0.1 µM, first compound 3.16 µM
# [36] = second compound 0.1 µM, first compound 10 µM
# [37] = second compound 0.316 µM, first compound 0.0316 µM
# [38] = second compound 0.316 µM, first compound 0.1 µM
# [39] = second compound 0.316 µM, first compound 0.316 µM
# [40] = second compound 0.316 µM, first compound 1 µM
# [41] = second compound 0.316 µM, first compound 3.16 µM
# [42] = second compound 0.316 µM, first compound 10 µM
# [43] = second compound 1 µM, first compound 0.0316 µM
# [44] = second compound 1 µM, first compound 0.1 µM
# [45] = second compound 1 µM, first compound 0.316 µM
# [46] = second compound 1 µM, first compound 1 µM
# [47] = second compound 1 µM, first compound 3.16 µM
# [48] = second compound 1 µM, first compound 10 µM
# [49] = second compound 3.16 µM, first compound 0.0316 µM
# [50] = second compound 3.16 µM, first compound 0.1 µM
# [51] = second compound 3.16 µM, first compound 0.316 µM
# [52] = second compound 3.16 µM, first compound 1 µM
# [53] = second compound 3.16 µM, first compound 3.16 µM
# [54] = second compound 3.16 µM, first compound 10 µM
# [55] = second compound 10 µM, first compound 0.0316 µM
# [56] = second compound 10 µM, first compound 0.1 µM
# [57] = second compound 10 µM, first compound 0.316 µM
# [58] = second compound 10 µM, first compound 1 µM
# [59] = second compound 10 µM, first compound 3.16 µM
# [60] = second compound 10 µM, first compound 10 µM
# 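Further: compound exposure lasted seven days before the viability readout.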
# 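Wherever viability, T/C is given: 100% = DMSO vehicle control wells.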
smiles,measurement,setting,value
CC(C)CC(NC(=O)C(Cc1ccccc1)NC(=O)c1cnccn1)B(O)O (stereo not drawn) + CN1CCN(c2cc(C(=O)Nc3cc4cc(-c5cnn(C)c5)ccc4cn3)ccn2)CC1,IC50,second compound 0.0316 µM,0.0018 µM
same,IC50,second compound 0.1 µM,0.00172 µM
same,IC50,second compound 0.316 µM,< 0.000949 µM
same,IC50,second compound 1 µM,< 0.000949 µM
same,IC50,second compound 3.16 µM,< 0.000949 µM
same,IC50,second compound 10 µM,< 0.000949 µM
same,"viability, T/C","second compound 0.0316 µM, first compound 0.000949 µM",83.2%
same,"viability, T/C","second compound 0.0316 µM, first compound 0.003 µM",23.3%
same,"viability, T/C",[1],0.24%
same,"viability, T/C",[2],0.17%
same,"viability, T/C",[3],0.13%
same,"viability, T/C",[4],0.12%
same,"viability, T/C","second compound 0.1 µM, first compound 0.000949 µM",84.3%
same,"viability, T/C","second compound 0.1 µM, first compound 0.003 µM",18.2%
same,"viability, T/C",[5],1.22%
same,"viability, T/C",[6],0.15%
same,"viability, T/C",[7],0.19%
same,"viability, T/C",[8],0.11%
same,"viability, T/C","second compound 0.316 µM, first compound 0.000949 µM",20.7%
same,"viability, T/C","second compound 0.316 µM, first compound 0.003 µM",1.68%
same,"viability, T/C",[9],0.49%
same,"viability, T/C",[10],0.11%
same,"viability, T/C",[11],0.9%
same,"viability, T/C",[12],0.12%
same,"viability, T/C","second compound 1 µM, first compound 0.000949 µM",0.18%
same,"viability, T/C","second compound 1 µM, first compound 0.003 µM",1.45%
same,"viability, T/C",[13],0.95%
same,"viability, T/C",[14],0.06%
same,"viability, T/C",[15],0.3%
same,"viability, T/C",[16],0.08%
same,"viability, T/C","second compound 3.16 µM, first compound 0.000949 µM",0.24%
same,"viability, T/C","second compound 3.16 µM, first compound 0.003 µM",0.69%
same,"viability, T/C",[17],0.24%
same,"viability, T/C",[18],0.05%
same,"viability, T/C",[19],0.07%
same,"viability, T/C",[20],0.09%
same,"viability, T/C","second compound 10 µM, first compound 0.000949 µM",1.09%
same,"viability, T/C","second compound 10 µM, first compound 0.003 µM",0.98%
same,"viability, T/C",[21],0.26%
same,"viability, T/C",[22],2.17%
same,"viability, T/C",[23],0.59%
same,"viability, T/C",[24],0.24%
NC(=O)C(=Cn1cnc(-c2cc(C(F)(F)F)cc(C(F)(F)F)c2)n1)c1cncnc1 + CNC(=O)c1ccc(Nc2nc(OC3CCCC3)c3c(-c4ccc5nc(C)oc5c4)c[nH]c3n2)c(OC)c1,IC50,second compound 0.0316 µM,0.0386 µM
same,IC50,second compound 0.1 µM,< 0.00949 µM
same,IC50,second compound 0.316 µM,< 0.00949 µM
same,IC50,second compound 1 µM,< 0.00949 µM
same,IC50,second compound 3.16 µM,< 0.00949 µM
same,IC50,second compound 10 µM,< 0.00949 µM
same,"viability, T/C",[1],72.8%
same,"viability, T/C",[2],57.6%
same,"viability, T/C",[3],25.4%
same,"viability, T/C",[4],12.7%
same,"viability, T/C","second compound 0.0316 µM, first compound 0.949 µM",7.15%
same,"viability, T/C","second compound 0.0316 µM, first compound 3 µM",2.1%
same,"viability, T/C",[5],32.3%
same,"viability, T/C",[6],29.7%
same,"viability, T/C",[7],21.4%
same,"viability, T/C",[8],12.4%
same,"viability, T/C","second compound 0.1 µM, first compound 0.949 µM",6.65%
same,"viability, T/C","second compound 0.1 µM, first compound 3 µM",2.59%
same,"viability, T/C",[9],36.7%
same,"viability, T/C",[10],32.8%
same,"viability, T/C",[11],23.8%
same,"viability, T/C",[12],12%
same,"viability, T/C","second compound 0.316 µM, first compound 0.949 µM",5.08%
same,"viability, T/C","second compound 0.316 µM, first compound 3 µM",1.7%
same,"viability, T/C",[13],31.9%
same,"viability, T/C",[14],32.6%
same,"viability, T/C",[15],20.9%
same,"viability, T/C",[16],10.4%
same,"viability, T/C","second compound 1 µM, first compound 0.949 µM",3.69%
same,"viability, T/C","second compound 1 µM, first compound 3 µM",0.49%
same,"viability, T/C",[17],30.1%
same,"viability, T/C",[18],34.9%
same,"viability, T/C",[19],18.2%
same,"viability, T/C",[20],7.24%
same,"viability, T/C","second compound 3.16 µM, first compound 0.949 µM",2.43%
same,"viability, T/C","second compound 3.16 µM, first compound 3 µM",0.24%
same,"viability, T/C",[21],37.7%
same,"viability, T/C",[22],26.8%
same,"viability, T/C",[23],14.3%
same,"viability, T/C",[24],7.07%
same,"viability, T/C","second compound 10 µM, first compound 0.949 µM",2.12%
same,"viability, T/C","second compound 10 µM, first compound 3 µM",0.82%
C=C(F)C(=O)N1CCN(c2nc(OCC3CCCN3C)nc3c2CCN(c2cccc4cccc(Cl)c24)C3)CC1CC#N (stereo not drawn) + CNC(=O)c1ccc(Nc2nc(OC3CCCC3)c3c(-c4ccc5nc(C)oc5c4)c[nH]c3n2)c(OC)c1,IC50,second compound 0.0316 µM,2.02 µM
same,IC50,second compound 0.1 µM,< 0.0316 µM
same,IC50,second compound 0.316 µM,< 0.0316 µM
same,IC50,second compound 1 µM,< 0.0316 µM
same,IC50,second compound 3.16 µM,< 0.0316 µM
same,IC50,second compound 10 µM,< 0.0316 µM
same,"viability, T/C",[25],69.1%
same,"viability, T/C",[26],63.1%
same,"viability, T/C",[27],72.3%
same,"viability, T/C",[28],78%
same,"viability, T/C",[29],36.7%
same,"viability, T/C",[30],0.16%
same,"viability, T/C",[31],35.7%
same,"viability, T/C",[32],42.1%
same,"viability, T/C",[33],42.7%
same,"viability, T/C",[34],39.8%
same,"viability, T/C",[35],26.7%
same,"viability, T/C",[36],0.13%
same,"viability, T/C",[37],37.1%
same,"viability, T/C",[38],41.4%
same,"viability, T/C",[39],32.4%
same,"viability, T/C",[40],39%
same,"viability, T/C",[41],16.2%
same,"viability, T/C",[42],0.17%
same,"viability, T/C",[43],25.5%
same,"viability, T/C",[44],31.4%
same,"viability, T/C",[45],34.9%
same,"viability, T/C",[46],34.5%
same,"viability, T/C",[47],10.4%
same,"viability, T/C",[48],0.13%
same,"viability, T/C",[49],30.2%
same,"viability, T/C",[50],35.3%
same,"viability, T/C",[51],35.7%
same,"viability, T/C",[52],35%
same,"viability, T/C",[53],14.3%
same,"viability, T/C",[54],2.42%
same,"viability, T/C",[55],31.6%
same,"viability, T/C",[56],32.9%
same,"viability, T/C",[57],27.7%
same,"viability, T/C",[58],27.3%
same,"viability, T/C",[59],9.27%
same,"viability, T/C",[60],0.53%
CC(=O)O[C@H]1C(=O)[C@@]2(C)[C@H]([C@H](OC(=O)c3ccccc3)[C@]3(O)C[C@H](OC(=O)[C@H](O)[C@@H](NC(=O)c4ccccc4)c4ccccc4)C(C)=C1C3(C)C)[C@]1(OC(C)=O)CO[C@@H]1C[C@@H]2O + CN1CCN(c2cc(C(=O)Nc3cc4cc(-c5cnn(C)c5)ccc4cn3)ccn2)CC1,IC50,second compound 0.0316 µM,< 0.0316 µM
same,IC50,second compound 0.1 µM,< 0.0316 µM
same,IC50,second compound 0.316 µM,< 0.0316 µM
same,IC50,second compound 1 µM,< 0.0316 µM
same,IC50,second compound 3.16 µM,< 0.0316 µM
same,IC50,second compound 10 µM,< 0.0316 µM
same,"viability, T/C",[25],7.03%
same,"viability, T/C",[26],7.96%
same,"viability, T/C",[27],7.37%
same,"viability, T/C",[28],6.76%
same,"viability, T/C",[29],6.08%
same,"viability, T/C",[30],6.39%
same,"viability, T/C",[31],5.82%
same,"viability, T/C",[32],7.72%
same,"viability, T/C",[33],7.07%
same,"viability, T/C",[34],6.35%
same,"viability, T/C",[35],6.66%
same,"viability, T/C",[36],8.15%
same,"viability, T/C",[37],5.25%
same,"viability, T/C",[38],5.87%
same,"viability, T/C",[39],5.15%
same,"viability, T/C",[40],5.39%
same,"viability, T/C",[41],7.05%
same,"viability, T/C",[42],7.94%
same,"viability, T/C",[43],0.07%
same,"viability, T/C",[44],0.08%
same,"viability, T/C",[45],0.18%
same,"viability, T/C",[46],1.42%
same,"viability, T/C",[47],0.21%
same,"viability, T/C",[48],0.05%
same,"viability, T/C",[49],0.21%
same,"viability, T/C",[50],0.13%
same,"viability, T/C",[51],2.68%
same,"viability, T/C",[52],0.06%
same,"viability, T/C",[53],0.46%
same,"viability, T/C",[54],0.1%
same,"viability, T/C",[55],0.05%
same,"viability, T/C",[56],1.24%
same,"viability, T/C",[57],0.14%
same,"viability, T/C",[58],0.91%
same,"viability, T/C",[59],0.48%
same,"viability, T/C",[60],0.46%
